Assay results as given in the supplement of paper PMC12463676, “Small-molecule dissolution of stress granules by redox modulation benefits ALS models” (Nature Chemical Biology, 2025).

Assays:
potassium arsenate = compound: O=[As]([O-])(O)O.[K+] [potassium arsenate]; assay: thermal stability z-score vs DMSO; higher = more thermally stabilized by treatment; conditions: HeLa; arsenate concentration 1 mM
Procedure: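 Cellular thermal proteome profiling in HeLa cells treated with 1 mM arsenate for 1 h (DMSO pretreatment), heated to ten temperatures (37-66.3 °C). Soluble protein was quantified by TMT mass spectrometry relative to DMSO controls; the thermal stability score was transformed to a z-score; mean of n = 3 experiments.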

lipoamide = compound: NC(=O)CCCCC1CCSS1 [lipoamide]; assay: as above; conditions: HeLa, lipoamide concentration 100 µM
Procedure: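 Cellular thermal proteome profiling in HeLa cells. Cells were treated with 100 µM lipoamide for 1 h, with or without 1 mM arsenate for a further 1 h, then heated to ten temperatures (37-66.3 °C), and soluble protein was quantified by TMT mass spectrometry relative to 0.1% DMSO controls. The thermal stability score (sum of log2 fold changes minus the abundance score) was transformed to a z-score; mean of n = 3 experiments.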

[1] = arsenate co-treatment: 1 mM arsenate 1 h
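Further: each temperature applied for 3 min, abundance score taken as mean log2 fold change at the two lowest temperatures, z-score obtained by mean subtraction and division by SD.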

Sequence of UniProt Q9BV57 (Q9BV57 whole entry): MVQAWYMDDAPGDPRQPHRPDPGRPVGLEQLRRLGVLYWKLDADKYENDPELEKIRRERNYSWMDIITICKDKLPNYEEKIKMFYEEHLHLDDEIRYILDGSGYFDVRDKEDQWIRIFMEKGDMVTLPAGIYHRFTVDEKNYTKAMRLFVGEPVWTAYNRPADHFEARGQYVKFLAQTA
Sequence of UniProt P98173 (P98173 whole entry): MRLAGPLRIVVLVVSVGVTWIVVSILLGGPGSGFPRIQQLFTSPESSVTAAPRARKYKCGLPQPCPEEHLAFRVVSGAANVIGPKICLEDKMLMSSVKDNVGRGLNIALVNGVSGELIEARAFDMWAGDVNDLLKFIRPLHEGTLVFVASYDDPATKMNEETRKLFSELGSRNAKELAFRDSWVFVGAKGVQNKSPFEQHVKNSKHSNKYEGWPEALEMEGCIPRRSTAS
Sequence of UniProt Q9UL33 (Q9UL33 whole entry): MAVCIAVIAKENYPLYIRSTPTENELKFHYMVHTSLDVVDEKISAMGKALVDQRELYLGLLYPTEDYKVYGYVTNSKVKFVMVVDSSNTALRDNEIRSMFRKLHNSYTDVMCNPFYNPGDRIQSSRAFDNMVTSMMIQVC
Sequence of UniProt Q12893 (Q12893 whole entry): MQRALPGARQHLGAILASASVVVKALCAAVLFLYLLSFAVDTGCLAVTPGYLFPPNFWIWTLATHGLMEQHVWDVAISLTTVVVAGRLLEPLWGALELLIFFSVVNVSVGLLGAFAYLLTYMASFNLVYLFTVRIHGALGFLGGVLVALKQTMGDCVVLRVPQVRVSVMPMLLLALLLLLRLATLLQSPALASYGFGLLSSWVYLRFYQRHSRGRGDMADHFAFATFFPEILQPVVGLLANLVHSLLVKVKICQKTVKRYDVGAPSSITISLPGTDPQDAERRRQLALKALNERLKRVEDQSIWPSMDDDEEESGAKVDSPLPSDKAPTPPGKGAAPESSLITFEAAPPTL
Sequence of UniProt Q13480 (Q13480 whole entry): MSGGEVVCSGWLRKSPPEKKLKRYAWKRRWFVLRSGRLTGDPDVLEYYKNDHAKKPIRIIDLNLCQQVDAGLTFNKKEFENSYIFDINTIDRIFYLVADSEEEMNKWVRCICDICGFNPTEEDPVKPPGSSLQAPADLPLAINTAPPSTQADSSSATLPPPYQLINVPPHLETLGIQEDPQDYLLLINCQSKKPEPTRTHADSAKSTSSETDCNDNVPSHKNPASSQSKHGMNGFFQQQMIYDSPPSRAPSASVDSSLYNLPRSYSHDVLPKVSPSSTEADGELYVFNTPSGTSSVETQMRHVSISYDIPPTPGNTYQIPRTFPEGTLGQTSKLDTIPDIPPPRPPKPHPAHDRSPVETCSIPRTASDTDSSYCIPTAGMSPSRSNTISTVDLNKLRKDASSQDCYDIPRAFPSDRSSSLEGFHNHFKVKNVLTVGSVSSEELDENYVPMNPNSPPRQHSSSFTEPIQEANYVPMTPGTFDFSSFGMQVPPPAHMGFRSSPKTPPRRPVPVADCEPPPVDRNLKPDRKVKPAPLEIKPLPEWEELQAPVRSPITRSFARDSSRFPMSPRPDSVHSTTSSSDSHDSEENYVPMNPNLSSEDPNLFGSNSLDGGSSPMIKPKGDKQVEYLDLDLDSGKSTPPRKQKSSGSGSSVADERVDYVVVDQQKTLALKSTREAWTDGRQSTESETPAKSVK
Sequence of UniProt Q96S52 (Q96S52 whole entry): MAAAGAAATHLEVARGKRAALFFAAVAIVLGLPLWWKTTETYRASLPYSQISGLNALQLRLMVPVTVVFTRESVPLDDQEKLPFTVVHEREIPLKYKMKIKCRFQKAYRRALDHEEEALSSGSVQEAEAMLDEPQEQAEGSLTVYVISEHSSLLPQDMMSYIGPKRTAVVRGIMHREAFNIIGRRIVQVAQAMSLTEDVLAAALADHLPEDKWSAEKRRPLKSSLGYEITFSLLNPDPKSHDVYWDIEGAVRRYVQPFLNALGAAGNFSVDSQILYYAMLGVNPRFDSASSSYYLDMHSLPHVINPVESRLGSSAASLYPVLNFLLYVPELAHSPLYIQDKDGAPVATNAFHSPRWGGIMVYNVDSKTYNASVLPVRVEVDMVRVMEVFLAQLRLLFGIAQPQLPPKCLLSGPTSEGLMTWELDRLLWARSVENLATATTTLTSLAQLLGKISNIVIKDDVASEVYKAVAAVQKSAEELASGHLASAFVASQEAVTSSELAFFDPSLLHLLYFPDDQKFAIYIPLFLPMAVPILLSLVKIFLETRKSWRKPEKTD
Sequence of UniProt O94992 (O94992 whole entry): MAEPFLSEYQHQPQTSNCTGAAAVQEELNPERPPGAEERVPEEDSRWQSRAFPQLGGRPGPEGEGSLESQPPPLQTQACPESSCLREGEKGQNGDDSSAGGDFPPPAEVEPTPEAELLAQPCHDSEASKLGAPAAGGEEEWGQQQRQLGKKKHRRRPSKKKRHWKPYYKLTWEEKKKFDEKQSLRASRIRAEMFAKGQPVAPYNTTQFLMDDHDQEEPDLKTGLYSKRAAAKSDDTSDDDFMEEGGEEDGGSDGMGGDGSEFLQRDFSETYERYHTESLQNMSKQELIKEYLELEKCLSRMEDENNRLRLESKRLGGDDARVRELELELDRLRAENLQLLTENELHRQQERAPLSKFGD
Sequence of UniProt P05455 (P05455 whole entry): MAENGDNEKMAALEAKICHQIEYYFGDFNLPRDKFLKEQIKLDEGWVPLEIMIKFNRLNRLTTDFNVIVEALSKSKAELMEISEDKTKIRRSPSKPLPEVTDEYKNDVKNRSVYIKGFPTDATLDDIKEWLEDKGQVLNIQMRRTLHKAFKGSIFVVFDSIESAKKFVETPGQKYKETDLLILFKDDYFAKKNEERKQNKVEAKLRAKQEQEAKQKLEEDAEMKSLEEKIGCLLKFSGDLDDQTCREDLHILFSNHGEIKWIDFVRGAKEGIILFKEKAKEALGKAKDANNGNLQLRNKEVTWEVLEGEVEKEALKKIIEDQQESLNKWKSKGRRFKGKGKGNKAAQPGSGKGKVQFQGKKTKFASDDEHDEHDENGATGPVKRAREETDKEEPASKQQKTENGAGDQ
Sequence of UniProt P63208 (P63208 whole entry): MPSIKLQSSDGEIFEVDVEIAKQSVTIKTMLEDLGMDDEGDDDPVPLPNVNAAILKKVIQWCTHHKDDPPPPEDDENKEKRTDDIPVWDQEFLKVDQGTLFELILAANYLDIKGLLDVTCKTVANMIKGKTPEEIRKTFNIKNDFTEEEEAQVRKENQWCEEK
Sequence of UniProt O75116 (O75116 whole entry, looked up): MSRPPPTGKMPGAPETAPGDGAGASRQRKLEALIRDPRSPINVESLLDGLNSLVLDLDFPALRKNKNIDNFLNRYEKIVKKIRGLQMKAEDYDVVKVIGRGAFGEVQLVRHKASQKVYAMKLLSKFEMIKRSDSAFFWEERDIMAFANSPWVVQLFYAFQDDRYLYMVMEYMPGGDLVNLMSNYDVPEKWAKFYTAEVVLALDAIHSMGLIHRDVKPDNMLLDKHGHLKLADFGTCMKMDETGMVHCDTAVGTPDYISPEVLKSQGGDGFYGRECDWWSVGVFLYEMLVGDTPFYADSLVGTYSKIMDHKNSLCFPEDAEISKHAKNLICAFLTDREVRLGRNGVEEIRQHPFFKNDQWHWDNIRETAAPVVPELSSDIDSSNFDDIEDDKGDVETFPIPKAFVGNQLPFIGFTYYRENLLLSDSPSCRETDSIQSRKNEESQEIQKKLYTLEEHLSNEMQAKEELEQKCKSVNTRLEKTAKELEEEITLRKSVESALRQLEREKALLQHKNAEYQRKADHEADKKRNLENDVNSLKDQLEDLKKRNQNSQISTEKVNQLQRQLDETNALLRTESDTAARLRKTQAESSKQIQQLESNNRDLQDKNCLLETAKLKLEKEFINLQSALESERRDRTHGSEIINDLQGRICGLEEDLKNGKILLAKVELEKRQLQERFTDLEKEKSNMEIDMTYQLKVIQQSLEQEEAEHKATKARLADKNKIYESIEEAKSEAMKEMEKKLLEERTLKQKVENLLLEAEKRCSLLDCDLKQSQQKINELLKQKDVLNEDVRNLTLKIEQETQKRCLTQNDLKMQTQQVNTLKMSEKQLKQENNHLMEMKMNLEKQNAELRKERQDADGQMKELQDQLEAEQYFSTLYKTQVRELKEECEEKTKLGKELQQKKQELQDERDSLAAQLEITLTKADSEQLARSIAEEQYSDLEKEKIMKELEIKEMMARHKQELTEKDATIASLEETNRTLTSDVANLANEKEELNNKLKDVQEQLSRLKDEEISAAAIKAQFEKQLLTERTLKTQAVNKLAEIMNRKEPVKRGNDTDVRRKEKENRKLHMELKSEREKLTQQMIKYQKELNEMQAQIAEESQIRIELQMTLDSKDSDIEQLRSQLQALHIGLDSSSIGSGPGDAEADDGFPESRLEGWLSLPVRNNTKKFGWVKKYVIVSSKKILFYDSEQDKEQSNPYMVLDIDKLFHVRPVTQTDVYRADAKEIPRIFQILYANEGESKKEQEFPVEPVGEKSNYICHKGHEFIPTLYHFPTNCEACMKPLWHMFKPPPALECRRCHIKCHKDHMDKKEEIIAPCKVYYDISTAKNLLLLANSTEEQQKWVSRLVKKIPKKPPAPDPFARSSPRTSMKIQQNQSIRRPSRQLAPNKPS
Sequence of UniProt P61966 (P61966 whole entry): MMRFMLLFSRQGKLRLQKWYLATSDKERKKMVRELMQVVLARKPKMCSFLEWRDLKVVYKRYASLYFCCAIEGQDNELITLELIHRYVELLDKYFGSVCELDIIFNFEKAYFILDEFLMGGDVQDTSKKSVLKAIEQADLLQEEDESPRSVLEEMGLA
Sequence of UniProt P30086 (P30086 whole entry, looked up): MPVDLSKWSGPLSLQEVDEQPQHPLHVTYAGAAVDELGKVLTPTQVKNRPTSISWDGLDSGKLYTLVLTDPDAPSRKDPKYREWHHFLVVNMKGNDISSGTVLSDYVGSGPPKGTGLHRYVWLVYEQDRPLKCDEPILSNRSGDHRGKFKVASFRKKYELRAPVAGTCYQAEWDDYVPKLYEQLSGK

Target	thermal stability z-score (potassium arsenate)	thermal stability z-score (lipoamide; [1])	thermal stability z-score (lipoamide; arsenate co-treatment: none)
SMARCD1 (UniProt Q96GM5)	-0.164	-0.0223	0.0841
SLC44A1 (UniProt Q8WWI5)	-0.452	0.347	-0.0965
HEXIM1 (UniProt O94992)	0.384	0.736	0.591
FAM3A (UniProt P98173)	0.363	0.0593	-0.109
TTC21B (UniProt Q7Z4L5)	-0.277	-0.223	-0.505
ADPGK (UniProt Q9BRR6)	-0.315	-1.02	-0.44
WFS1 (UniProt O76024)	-0.022	-0.47	-0.487
RRM2B (UniProt Q7LG56)	-0.703	0.945	0.415
DHRS7 (UniProt Q9Y394)	0.437	-0.365	-0.498
ITGAV (UniProt P06756)	-0.323	-0.283	-0.316
MYDGF (UniProt Q969H8)	-0.0349	-1.32	-1.06
NAV1 (UniProt Q8NEY1)	0.073	-0.0334	0.0173
SSB (UniProt P05455)	0.363	-0.542	0.233
BIN3 (UniProt Q9NQY0)	-0.201	-0.115	-0.19
TNS4 (UniProt Q8IZW8)	-0.0861	-0.0278	-0.078
TUBB3 (UniProt Q13509)	-0.447	0.871	0.131
LARS (UniProt Q9P2J5)	0.86	-0.63	0.0502
TMEM115 (UniProt Q12893)	-0.307	0.0848	0.637
CCDC25 (UniProt Q86WR0)	0.439	0.415	0.668
ADI1 (UniProt Q9BV57)	-0.317	0.768	0.913
AP1S1 (UniProt P61966)	0.802	-0.264	-0.339
MUL1 (UniProt Q969V5)	-2.82	-0.0704	-0.261
ACADS (UniProt P16219)	-2.93	0.116	-1.16
RAD51 (UniProt Q06609)	-0.0411	0.0327	0.256

Target	thermal stability z-score (potassium arsenate)	thermal stability z-score (lipoamide; [1])	thermal stability z-score (lipoamide; arsenate co-treatment: none)
CCS (UniProt O14618)	3.23	1.32	0.653
IPPK (UniProt Q9H8X2)	0.0883	0.199	0.487
CAPZB (UniProt P47756)	0.454	-0.059	0.144
IDH1 (UniProt O75874)	-0.596	0.0654	-0.257
COMMD9 (UniProt Q9P000)	-0.0631	-0.221	-0.146
PARP4 (UniProt Q9UKK3)	0.742	0.157	-0.044
SCRIB	0.128	-0.00971	-0.22
TMEM109 (UniProt Q9BVC6)	0.115	0.0915	0.27
PSMC3 (UniProt P17980)	-0.44	-0.262	-0.0444
TRAPPC2L (UniProt Q9UL33)	-0.119	-0.426	0.338
STXBP1 (UniProt P61764)	0.156	-0.206	0.0929
PEBP1 (UniProt P30086)	-0.433	0.203	0.0137
KRI1 (UniProt Q8N9T8)	-0.376	0.198	-0.118
EXOC2 (UniProt Q96KP1)	0.575	-0.195	-0.453
SNAPC3 (UniProt Q92966)	-0.108	-0.219	-0.258
CHPF2 (UniProt Q9P2E5)	-0.154	-0.824	-0.516
RICTOR (UniProt Q6R327)	0.166	-1.23	-0.161
SKP1 (UniProt P63208)	-0.000141	0.337	0.557
HDHD2 (UniProt Q9H0R4)	-0.185	0.338	0.00313
SNRNP40 (UniProt Q96DI7)	-0.213	0.383	-0.0333
PIGS (UniProt Q96S52)	0.44	-2.47	-2.43
ROCK2 (UniProt O75116)	0.245	0.504	0.462
TRIM11 (UniProt Q96F44)	-1.05	-0.68	-1.71
ATR (UniProt Q13535)	-0.568	-0.0437	0.124

Target	thermal stability z-score (potassium arsenate)	thermal stability z-score (lipoamide; [1])	thermal stability z-score (lipoamide; arsenate co-treatment: none)
RTCB (UniProt Q9Y3I0)	-1.21	0.445	0.0607
TUSC1 (UniProt Q2TAM9)	0.0895	0.515	0.368
TIMELESS (UniProt Q9UNS1)	-0.498	-0.244	-0.0831
HMCES (UniProt Q96FZ2)	-0.565	0.164	0.254
GPT2 (UniProt Q8TD30)	-0.153	0.342	0.427
UTP15 (UniProt Q8TED0)	0.528	0.625	0.147
AAAS (UniProt Q9NRG9)	0.108	-0.373	-0.12
DNAJC11 (UniProt Q9NVH1)	0.285	0.0767	-0.132
UXT (UniProt Q9UBK9)	0.352	0.497	0.378
TOE1 (UniProt Q96GM8)	-2.54	0.165	0.146
ABCB8 (UniProt Q9NUT2)	-1.1	-0.84	-0.813
CCT5 (UniProt P48643)	0.118	-0.0313	-0.053
MOB1B|MOB1A	0.896	1.02	0.33
CAPRIN1 (UniProt Q14444)	0.295	0.381	0.754
ST7 (UniProt Q9NRC1)	-1.16	-0.0918	0.0296
GOLGB1 (UniProt Q14789)	0.886	-0.345	-0.0596
GAB1 (UniProt Q13480)	-0.0474	-0.149	0.0158
MOCS2	-0.289	0.00471	0.303
LRP1 (UniProt Q07954)	-0.0899	-1.1	-1.01
IFIT1 (UniProt P09914)	0.419	-0.626	-0.265
CASKIN2 (UniProt Q8WXE0)	0.938	-0.798	0.441
GSTK1 (UniProt Q9Y2Q3)	-0.0332	-0.0293	0.351
COX7A2L (UniProt O14548)	-0.221	0.761	0.522
GNA13 (UniProt Q14344)	-0.441	0.187	0.347
